Experiment [1] has as its target DPP9 (Homo sapiens, UniProt Q86TI2). Put plainly: In vitro gel-based competitive ABPP in HEK293 cell lysates, 100 kDa band. Details: endogenous in cells; host or cells: HEK293 (Cytion, Germany, 300192). The note with it: HEK293 lysate, 10 µM competitor, 30 min; for Competition of ≡FP labeling (in words): 2 µM ≡FP. As for the experimental part:
Therefore, HEK293 cell lysates were pre‐incubated with 10 µM 5 or DMSO vehicle control for 30 min, followed by a labeling reaction with 2 µM of the serine hydrolase‐specific ABP fluorophosphonate‐alkyne (≡FP) or 10 µM 2 (Figure 2B). […] Of note, this band has been previously assigned as DPP9 (DPP8 would migrate in the same range, but is only expressed at low levels in the used cell line and therefore cannot be visualized by this approach).^[ [36] ^, [37] ^] […] Again, this labeling was observed regardless of prior irradiation. Subsequently, the competitive labeling experiment was conducted by pre‐incubation with compound 5, with or without subsequent irradiation.
Figure 2 Competitive ABPP with photo‐cleavable inhibitor 5 in HEK293 cells. A) Schematic overview of a competitive ABPP experiment. A proteome is pre‐incubated with a competitor, followed by a labeling reaction with an activity‐based probe (ABP). In the case of a photocaged inhibitor, the active compound can be released via irradiation. Target proteins of the competitor cannot be bound by the ABP, resulting in an absence of the respective protein band in‐gel analysis. Created in BioRender. Najdzion, M. (2025) https://BioRender.com/84zn8cb B) Gel‐based competitive ABPP experiment in HEK293 cell lysates with the broadband serine hydrolase ABP ≡FP or the DPP8/9‐directed ABP 2 and the photocaged inhibitor 5, at the indicated concentrations, after or without prior irradiation with green light for 5 min. The corresponding pre‐incubation time for 5 was 30 min. C) Corresponding in situ competitive ABPP experiment in HEK293 cell culture, again with 10 µM 2 for 1 h. Labeling was competed by pre‐incubation with 20 µM 5 for 1 h, followed by an activation of the photocaged inhibitor by irradiation for 5 min with a green LED lamp, if applicable. D) Green light treatment has no cytotoxic effect. HEK293 cells were irradiated with a green LED lamp in the presence of 0.5% DMSO for 5 min (‘light’), and cell viability was measured after 24 h. […] Data was normalized to the non‐irradiated control (‘dark’). E) Green light treatment leads to the release of the active DPP8/9 inhibitor. HEK293 cells were incubated with compound 1 or 5 for 24 h. For both compounds, cell viability was measured under ‘dark’ (not irradiated) and ‘light’ (irradiated for 5 min with a green LED lamp after the addition of the inhibitor) conditions. […] Data was normalized to the non‐irradiated DMSO control.
For in vitro ABPP, cell lysates were generated from HEK293 cells grown on a 10 cm tissue dish. […] The cell lysates were cleared via centrifugation (30 min, 20,817 × g, 4 °C), and protein concentration was determined with a modified Bradford assay using Roti‐Nanoquant (Carl Roth, Germany). […]

Experiment [2] deals with T1, human DPP4 (Homo sapiens, UniProt P27487).
T1 construct: purchased Proteros Biostructures GmbH, Germany
T1 sequence (P27487 whole entry): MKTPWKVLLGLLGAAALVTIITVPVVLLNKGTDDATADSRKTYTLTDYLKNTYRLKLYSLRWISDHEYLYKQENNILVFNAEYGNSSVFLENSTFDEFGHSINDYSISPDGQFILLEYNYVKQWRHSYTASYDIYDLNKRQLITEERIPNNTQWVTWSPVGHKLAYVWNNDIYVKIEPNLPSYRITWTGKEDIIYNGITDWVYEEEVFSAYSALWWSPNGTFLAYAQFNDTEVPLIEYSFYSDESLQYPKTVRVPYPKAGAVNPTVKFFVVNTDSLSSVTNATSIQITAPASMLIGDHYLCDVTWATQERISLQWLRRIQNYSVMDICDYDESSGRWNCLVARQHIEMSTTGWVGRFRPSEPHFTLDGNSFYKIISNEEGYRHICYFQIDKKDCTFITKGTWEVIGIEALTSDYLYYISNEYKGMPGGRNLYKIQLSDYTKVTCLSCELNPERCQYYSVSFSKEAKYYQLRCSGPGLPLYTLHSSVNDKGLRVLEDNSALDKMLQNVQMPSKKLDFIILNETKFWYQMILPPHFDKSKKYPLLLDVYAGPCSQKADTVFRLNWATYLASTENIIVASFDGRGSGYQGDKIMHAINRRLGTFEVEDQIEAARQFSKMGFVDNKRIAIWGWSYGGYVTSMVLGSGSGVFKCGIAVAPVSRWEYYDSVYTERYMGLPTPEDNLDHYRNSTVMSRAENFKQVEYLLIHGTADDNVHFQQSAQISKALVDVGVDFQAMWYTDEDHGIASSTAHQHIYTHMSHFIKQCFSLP
Kind of experiment: DPP4 enzyme inhibition assay, AMC release from GP-AMC. The format is biochemical. From the text: We then continued to investigate the biochemical properties of the photocaged compound 5 versus the photoreleased product resembling inhibitor 1. To this end, we performed biochemical enzyme inhibition assays with DPP8 and DPP9 before and after irradiation of 5. Resulting DPP8/9 inhibition was quantified by following the DPP8‐ or DPP9‐mediated proteolysis of the fluorophore 7‐amino‐4‐methylcoumarin (AMC) from the model substrate Gly‐Pro‐AMC (Figure 1C,D and Table 1 ). To induce photocleavage of 5, reaction mixtures were irradiated for 5 min with the same green LED lamp as before, followed by a pre‐incubation of 45 min with the photoreleased inhibitor prior to substrate addition.
Enzyme activity of human DPP4, DPP8, and DPP9 (Proteros Biostructures GmbH, Germany) was determined by measuring the initial velocity of AMC release from the fluorogenic substrate GP‐AMC (Sigma Aldrich, USA) using a Tecan Spark 10 M multimode microplate reader (Tecan Group Ltd., Switzerland) in activity buffer (20 mM HEPES/KOH pH 7.3, 110 mM potassium acetate, 2 mM magnesium acetate, 0.5 mM EGTA, 0.02% Tween 20, supplemented with 1 mM DTT) and a final volume of 20 μL for maximal 30 min at 30 °C. Prior to the activity measurement, 10 nM of the corresponding enzyme was incubated for 45 min at 30 °C and gentle shaking with the indicated compounds at concentrations ranging from 0 to 100 μM, followed by irradiation with a green LED lamp (λ = 520−530 nm; Eurolite, Germany) for 5 min. The corresponding compounds were dissolved in DMSO and diluted in activity buffer (final DMSO concentration: 1%). To the inhibitor–enzyme mixture, GP‐AMC was then added to a final concentration of 250 μM, and the activity measurement was started. The resulting enzyme activity was calculated from the slope (fluorescence release over time) and plotted against the concentrations of the inhibitor. Apparent IC50 values were calculated using Graph‐Pad Prism v10.4.1 using the equation: [Inhibitor] versus response‐Variable slope (four parameters). […]

Chain of DPP9 (Q86TI2 whole entry): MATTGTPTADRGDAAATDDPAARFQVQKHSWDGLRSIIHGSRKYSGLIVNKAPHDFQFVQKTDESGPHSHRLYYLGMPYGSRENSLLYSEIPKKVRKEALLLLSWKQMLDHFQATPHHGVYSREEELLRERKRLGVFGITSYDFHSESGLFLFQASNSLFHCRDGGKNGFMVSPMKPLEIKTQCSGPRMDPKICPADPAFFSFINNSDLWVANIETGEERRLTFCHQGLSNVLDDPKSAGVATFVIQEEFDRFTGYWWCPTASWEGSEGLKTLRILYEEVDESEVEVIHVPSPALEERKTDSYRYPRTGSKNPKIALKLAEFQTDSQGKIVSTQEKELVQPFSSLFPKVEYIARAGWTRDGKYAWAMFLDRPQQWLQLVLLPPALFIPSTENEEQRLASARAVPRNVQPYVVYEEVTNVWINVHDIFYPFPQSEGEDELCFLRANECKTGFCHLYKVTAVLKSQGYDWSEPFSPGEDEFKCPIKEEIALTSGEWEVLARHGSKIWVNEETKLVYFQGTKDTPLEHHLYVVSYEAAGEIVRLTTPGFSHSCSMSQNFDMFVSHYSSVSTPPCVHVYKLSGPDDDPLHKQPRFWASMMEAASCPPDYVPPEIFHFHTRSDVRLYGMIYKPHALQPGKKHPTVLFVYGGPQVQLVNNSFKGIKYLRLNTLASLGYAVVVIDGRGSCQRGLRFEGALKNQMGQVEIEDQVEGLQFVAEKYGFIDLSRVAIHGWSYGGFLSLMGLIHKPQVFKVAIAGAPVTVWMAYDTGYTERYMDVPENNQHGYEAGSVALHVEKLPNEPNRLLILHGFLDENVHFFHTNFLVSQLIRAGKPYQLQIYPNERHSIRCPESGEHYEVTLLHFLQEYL

By IC50 is commonly meant the midpoint of a concentration-inhibition curve. Turning to `CCCCCc1ccc(SCCP(=O)(OCC)N2CCC[C@H](NC(=O)OCC3=C4C(C)=CC(C)=[N+]4[B-](C)(C)n4c(C)cc(C)c43)C2=O)cc1` (stereo partly drawn) [Compound 5], the “Competition of ≡FP labeling (in words)” value in experiment [1] (green light 5 min, 100 kDa band assigned as DPP9) is on record as “labeling competition of one specific band”; in experiment [1] (without irradiation) it was “did not result in any competition”. The “Competition of DPP9 labeling by ABP 2 (in words)” value in experiment [1] (10 µM 2, green light 5 min) is “efficient DPP9 labeling competition”. Besides, in experiment [2] (DPP4, dark (without green light irradiation), 45 min pre-incubation, read-out: Apparent IC50), the IC50 was over 100 µM. Also, the “DPP4 inhibition (in words)” value in experiment [2] (irradiated) and in experiment [2] (non-irradiated) was “not inhibited” each time.

Values taken from paper PMC12498190, “A Photocaged N‐Phosphonopiperidinone as a Selective Photo‐Cleavable DPP8/9 Inhibitor” (Chembiochem, 2025).
